Test results reported in patent publication US12065421B2, “Inhibitors of oplophorus luciferase-derived bioluminescent complexes” (priority 2018, dated 2024).

Target: T1, NanoBiT® HiBiT non-luminescent peptide and LgBiT non-luminescent polypeptide (HiBiT/LgBiT bioluminescent complex) (Oplophorus gracilirostris, UniProt Q9GV45, A31E/A60N/A81I/C191F/D135N/E192K/F58L/F95D/G184S/G42A/G62A/G78A/G94A/G98A/H120P/I103V/I117V/I134L/K70R/L176M/L195S/L54V/L73R/L99Q/M102E/N171T/N193K/P142E/Q151K/Q38E/Q45L/T186S/V71I/Y165I)
T1 construct: fused on or other part: N-terminal Met-Val on LgBiT in place of the signal peptide (residues 1-27); The chain is split between residues 184 and 185 into LgBiT and the 11-residue HiBiT peptide (residues 185-195); C-terminal A196 is absent
T1 sequence (Q9GV45 other isoform, or with tags, fused parts or gaps with the stated changes): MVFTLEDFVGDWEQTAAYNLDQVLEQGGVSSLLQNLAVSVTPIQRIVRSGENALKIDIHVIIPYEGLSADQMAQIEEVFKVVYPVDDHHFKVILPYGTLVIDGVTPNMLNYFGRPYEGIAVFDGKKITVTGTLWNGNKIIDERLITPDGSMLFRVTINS
Assay: biochemical

SMILES | IC50 [µM]
COc1ccc(C(=O)Nc2ccc(C)cc2)c(NS(=O)(=O)c2ccc(C)cc2)c1 [JRW-1202, 4-methoxy-2-((4-methylphenyl)sulfonamido)-N-(p-tolyl)benzamide] | 0.18
COC(=O)CCc1ccc(S(=O)(=O)Nc2ccccc2C(=O)Nc2cc3ccccc3s2)cc1 [HL-0040, methyl 3-(4-(N-(2-(benzo[b]thiophen-2-ylcarbamoyl)phenyl)sulfamoyl)phenyl)propanoate] | 0.43
Cc1ccc(S(=O)(=O)Nc2ccccc2C(=O)Nc2ccc3ccccc3c2)cc1 [HL-0007, 2-((4-methylphenyl)sulfonamido)-N-(naphthalen-2-yl)benzamide] | 0.014
COc1ccc(NC(=O)c2ccccc2NS(=O)(=O)c2ccc(C)cc2)cc1 [JRW-1300, N-(4-methoxyphenyl)-2-((4-methylphenyl)sulfonamido)benzamide] | 0.043
Cc1ccc(S(=O)(=O)Nc2ccccc2C(=O)Nc2cc3ccccc3s2)cc1 [HL-0005, N-(benzo[b]thiophen-2-yl)-2-((4-methylphenyl)sulfonamido)benzamide] | 0.0039
Cc1ccc(S(=O)(=O)Nc2ccccc2C(=O)Nc2sc3c(c2C#N)CCCC3)cc1 [JRW-1004, N-(3-cyano-4,5,6,7-tetrahydrobenzo[b]thiophen-2-yl)-2-((4-methylphenyl)sulfonamido)benzamide] | 0.03
Cc1ccc(S(=O)(=O)Nc2cc3ccccc3cc2C(=O)Nc2cc3ccccc3s2)cc1 [HL-0057, N-(benzo[b]thiophen-2-yl)-3-((4-methylphenyl)sulfonamido)-2-naphthamide] | 0.055
O=C(Nc1cc2ccccc2s1)c1ccccc1NS(=O)(=O)c1ccc(CCCO)cc1 [HL-0062, N-(benzo[b]thiophen-2-yl)-2-((4-(3-hydroxypropyl)phenyl)sulfonamido)benzamide] | 1.2
CCCc1ccccc1NC(=O)c1ccccc1NS(=O)(=O)c1ccc(C)cc1 [HL-0059, 2-((4-methylphenyl)sulfonamido)-N-(2-propylphenyl)benzamide] | 0.19
Cc1ccc(NC(=O)c2ccccc2NS(=O)(=O)c2ccc(C)cc2)cc1 [HL-0019, 2-((4-methylphenyl)sulfonamido)-N-(p-tolyl)benzamide] | 0.029
Cc1ccc(S(=O)(=O)Nc2ccccc2C(=O)Nc2ccc3c(c2)CCCC3)cc1 [HL-0008, 2-((4-methylphenyl)sulfonamido)-N-(5,6,7,8-tetrahydronaphthalen-2-yl)benzamide] | 0.024
Cc1ccc(NC(=O)c2ccccc2NS(=O)(=O)c2cccc(Br)c2)cc1 [JRW-1267, 2-((3-bromophenyl)sulfonamido)-N-(p-tolyl)benzamide] | 0.036
Cc1ccc(S(=O)(=O)Nc2ccccc2C(=O)N[C@H]2CC[C@H](C(=O)O)CC2)cc1 [HL-0012, trans-4-(2-((4-methylphenyl)sulfonamido)benzamido)cyclohexane-1-carboxylic acid] | 0.49
Cc1ccc(S(=O)(=O)Nc2ccccc2C(=O)Nc2ccccc2C#N)cc1 [JRW-1008, N-(2-cyanophenyl)-2-((4-methylphenyl)sulfonamido)benzamide] | 0.24
COc1ccc(C(=O)Nc2cc3ccccc3s2)c(NS(=O)(=O)c2ccc(C)cc2)c1 [JRW-1203, N-(benzo[b]thiophen-2-yl)-4-methoxy-2-((4-methylphenyl)sulfonamido)benzamide] | 0.1
